The values below come from US11059815B2, “Synthesis of small molecule histone deacetylase 6 degraders, compounds formed thereby, and pharmaceutical compositions containing them” (Wisconsin Alumni Research Foundation, priority 2018, dated 2021).

One assay relates to HDAC6 and related genes. Kind of assay: qRT-PCR of mRNA level of HDAC6 and related genes. Particulars: 6 h treatment. The assay is classed as cell-based, human. From the text: To support the involvement of ubiquitination-proteasome system for the decrease of HDAC6 protein level, the degrader was co-treated with binding competitors or pathway blockers. […] Moreover, it also confirmed the role of the pomalidomide moiety in modulating IKZFs. […] Additionally, proteasome inhibitor MG132 and Bortezomib were used to block the down-stream proteasome degradation. […] Acetylated tubulin level was suppressed as well. This confirms that HDAC6 degradation is responsible for the acetylation of its substrates rather than inhibition by the “warhead” moiety. To exclude the possible transcriptional impact by degraders, qRT-PCR was used to examine the mRNA level of HDAC6 and related genes (data not shown). […] This is consistent with the hypothesis that the cellular knockdown of HDAC6 is due to direct protein degradation, not by transcriptional downregulation.
After treatment, cells were harvested and washed with cold PBS twice. […] The concentration of RNA was measured by Plate Reader. […] Ct value at automatically selected threshold was reported and calculated by 2^−ΔΔCt method. (Livak, K. J.; Schmittgen, T. D. “Analysis of Relative Gene Expression Data Using Real-Time Quantitative PCR and the 2 C T Method” METHODS 2001, 25, 402-408. The bar graph was generated and by GraphPad Prism.

Another assay has as its system Caspase-3 and PARP. Kind of assay: Cleavage of Caspase-3 and PARP in MM1S. It counts as cell-based, human. Particulars: 48 h treatment, data not shown. The protocol:
Single treatment or co-treatment was performed as combined therapy (1 μM) for 72 hours in MM1S cells. […] However, the single treatment of 12d improved about 19% (P=0.0017) and 11% (P=0.0213) growth inhibition comparing with the combination sets of 13+15 (1:1) and pomalidomide+Next-A (1:1), respectively. To further confirm the observed enhancement, the anti-proliferation in response to 12d was studied from 0.3 nM to 3 μM. This single treatment was compared with dual treatment of 13 and 15 to rule out the potential complication derived from cell permeability issue. Degrader 12d lowered the bottom line (minimal proliferation) of curve over 20% although its IC50 was […] consequentially.
When the cells reached 90% confluence, they were harvested and plated 1×10^6 cells per well in 6-well plate. After overnight seeding, the cells were treated with a solution of compounds or vehicle in culture medium. The culture medium was removed after treatment and then washed twice with cold PBS. […] Protein concentration was measured by using the Pierce BCA protein assay (Thermo Fisher Scientific). […] The Immunoblot was generated by ChemiDoc MP Imaging Systems (Bio-Rad) and analyzed by Image J software (only available for download online at https://imagej.net/Downloads). […]

For another assay, the target named is T1, HDAC1 (Homo sapiens, UniProt Q13547).
T1 construct: endogenous in cells; host or cells: MM1S
T1 sequence (Q13547 whole entry): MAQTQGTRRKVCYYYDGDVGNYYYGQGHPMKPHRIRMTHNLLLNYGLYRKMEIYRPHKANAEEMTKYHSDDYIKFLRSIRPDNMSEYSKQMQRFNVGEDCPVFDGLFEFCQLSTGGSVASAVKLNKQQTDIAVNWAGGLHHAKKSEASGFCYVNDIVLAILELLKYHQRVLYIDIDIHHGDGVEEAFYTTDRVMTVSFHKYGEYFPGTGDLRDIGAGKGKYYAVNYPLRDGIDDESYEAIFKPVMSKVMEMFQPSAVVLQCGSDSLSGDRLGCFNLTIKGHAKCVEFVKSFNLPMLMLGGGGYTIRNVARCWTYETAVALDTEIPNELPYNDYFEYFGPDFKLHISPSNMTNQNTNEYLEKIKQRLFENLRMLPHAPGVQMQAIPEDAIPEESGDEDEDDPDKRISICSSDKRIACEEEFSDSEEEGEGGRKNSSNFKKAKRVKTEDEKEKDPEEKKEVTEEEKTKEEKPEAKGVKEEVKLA
Nature of the assay: Western blot of HDAC1 in MM1S cells (time course). It counts as cell-based. Conditions: 100 nM. On the procedure: FIGS. 12A, 12B, and 12C are a series of western blots showing that degrader 12d selectively promotes HDAC6 degradation in MM1S cells.
To probe the efficiency of 12d, MM1S was treated with 100 nM 12d and the change of HDAC6 protein level was monitored by time. The HDAC6 degradation started around 1 h and reached maximal degradation effect at 4 h. The degradation of IKZFs was only observed after 4 h. Meanwhile, HDAC1 was not affected and the acetylation of tubulin was accumulated by time. To study the re-synthesis rate of HDAC6 after degradation, “wash-out” experiments were performed (data not shown). Cells were treated with 100 nM 12d for 6 h and then washed with PBS to remove remaining degraders. HDAC6 expression was monitored for 48 h. […] Selected degraders were also tested in other cell lines and they are effective among all tested cancer cell lines.
When the cells reached 90% confluence, they were harvested and plated 1×10^6 cells per well in 6-well plate. After overnight seeding, the cells were treated with a solution of compounds or vehicle in culture medium. […] Protein concentration was measured by using the Pierce BCA protein assay (Thermo Fisher Scientific). […] The Immunoblot was generated by ChemiDoc MP Imaging Systems (Bio-Rad) and analyzed by Image J software (only available for download online at https://imagej.net/Downloads). […]

In the case of `CCCCN(Cc1ccc(C(=O)NO)cc1)C(=O)Nc1ccc(OCCCCCn2cc(CNc3cccc4c3C(=O)N(C3CCC(=O)NC3=O)C4=O)nn2)cc1` (stereo not drawn) [Compound 12d, 4-((1-butyl-3-(4-((5-(4-(((2-(2,6-dioxopiperidin-3-yl)-1,3-dioxoisoindolin-4-yl)amino)methyl)-1H-1,2,3-triazol-1-yl)pentyl)oxy)phenyl)ureido)methyl)-N-hydroxybenzamide], in the assay with HDAC6 and related genes, the “effect on mRNA level of HDACs and IKZFs” value is given as “Little to no effects”. The “cleavages of Caspase-3 and PARP” value with Caspase-3 and PARP is reported as “dose-dependent”. In addition, the “effect on HDAC1” value on HDAC1 is reported as “not affected”.
